Here are results for 11 compounds from patent US4261892A, “2,4,6-Tris-(substituted-amino)-s-triazines” (American Cyanamid Company, priority 1979, dated 1981).

This data set concerns Adjuvant Arthritis In Rats. As to the kind of experiment: Adjuvant-induced arthritis in rats (chronic inflammation accompanied by joint destruction). The conditions noted are these: for inhibition in vivo at 50 mg/kg / inhibition in vivo at 25 mg/kg / inhibition in vivo at 100 mg/kg / inhibition in vivo at 200 mg/kg / inhibition in vivo at 400 mg/kg: Rattus norvegicus. It is filed as in vivo, Royal Hart, Wistar strain rats. How it is done: Groups of three Royal Hart, Wistar strain rats weighing 200±10 grams each were injected intradermally in the right hind paw with Freund's adjuvant (dried human tubercle bacilli in a mineral oil vehicle) at a dose of 2 mg./kg. of body weight. […] On the 14th and 21st day post challenge the diameter of the injected paw (primary lesion) was measured by micrometer caliper. The volume of inflamed paws were estimated from these measurements and the results are expressed as percent inhibition of swelling as compared to controls. At the same time, the other inflamed sites, such as ears, paws and tail (secondary lesions) were observed and each rat was graded as to degree of inflammation and swelling present. The grading is based on a scale of 0 to 24 where 0 represents a complete absence of induced arthritic nodules and 24 represents the maximum degree of inflammation. The mean grade for each treated group is calculated and the effects of each compound are expressed as percent inhibition of the control grade.

Where [1] appears, read: 336 h, oral 50 mg./kg. once daily days 0-13, Day 14, read-out: % Inhibition of Swelling (primary lesion) Day 14.
Setting [2] is: 504 h, oral 50 mg./kg. once daily days 0-13, Day 21, read-out: % Inhibition of Swelling (primary lesion) Day 21.
Where [3] appears, read: oral 50 mg./kg. once daily days 0-13, Day 14.
[4] abbreviates: oral 50 mg./kg. once daily days 0-13, Day 21.
Where [5] appears, read: oral 50 mg./kg. once daily days 0-13.
Setting [6] is: po, 336 h, read-out: % Inhibition of Swelling (primary lesion) Day 14.
The mark [7] stands for this setting: po, 504 h, read-out: % Inhibition of Swelling (primary lesion) Day 21.
Where [8] appears, read: oral 25 mg./kg. once daily days 0-13, Day 14.
Where [9] appears, read: oral 25 mg./kg. once daily days 0-13, Day 21.
[10] abbreviates: oral 100 mg./kg. once daily days 0-13, Day 14.
The mark [11] stands for this setting: oral 100 mg./kg. once daily days 0-13, Day 21.
Setting [12] is: oral 100 mg./kg. once daily days 0-13.
Where [13] appears, read: oral 200 mg./kg. once daily days 0-13, Day 14.
Setting [14] is: oral 200 mg./kg. once daily days 0-13, Day 21.
The mark [15] stands for this setting: oral 400 mg./kg. once daily days 0-13, Day 14.
Setting [16] is: oral 400 mg./kg. once daily days 0-13, Day 21.

Structures are written as SMILES. Like-named read-outs stand apart in the source and are kept apart here.

On to `CC(C)(C)C(C)(C)Nc1nc(N[C@H]2C[C@@H]3CC[C@H]2C3)nc(NC(C)(C)C(C)(C)C)n1` (relative stereo) [N^2-(exo[2.2.1]norbornyl)-N^4, N^6-bis(1,1,2,2-tetramethylpropyl)melamine], for which the inhibition in vivo at 50 mg/kg runs as follows: under setting [1], 49%; under setting [2], 24%. The “Mean Weight Gain (grams) Day 14” value under setting [3] amounted to 97 grams. Besides, the “Mean Weight Gain (grams) Day 21” value under setting [4] was 93 grams. For the same compound, the “Dead/Treated at 21 Days” value under setting [5] is recorded as 0/3.

Consider `CC(C)(C)CC(C)(C)Nc1nc(NC(C)(C)C)nc(N2CC3CCC(CC3)C2)n1` [2-(tert-butylamino)-4-(1,1,3,3-tetramethylbutylamino)-6-(3-azabicyclo[3.2.2]nonyl)-s-triazine], for which the inhibition in vivo at 50 mg/kg under setting [6] was found to be 42% and the inhibition in vivo at 50 mg/kg under setting [7] was found to be 14%. The “Mean Weight Gain (grams) Day 14” value under setting [3] is given as 85 grams. For the same compound, under setting [4], the “Mean Weight Gain (grams) Day 21” value is on record as 87 grams. For the same compound, under setting [5], the “Dead/Treated at 21 Days” value was 3/18.

Take `CCCCNc1nc(N2CC3CCC(CC3)C2)nc(N2CC3CCC(CC3)C2)n1` [3,3'-(6-butylamino-s-triazin-2,4-diyl)bis-3-azabicyclo[3.2.2]nonane]: the inhibition in vivo at 50 mg/kg under setting [6] is 46% and the inhibition in vivo at 50 mg/kg under setting [7] was 32%. Further, the “Mean Weight Gain (grams) Day 14” value under setting [3] amounted to 82 grams. Further, the “Mean Weight Gain (grams) Day 21” value under setting [4] was determined as 107 grams. Besides, under setting [5], the “Dead/Treated at 21 Days” value was 2/12.

As to `CC(C)(C)CC(C)(C)Nc1nc(NC(C)(C)CC(C)(C)C)nc(N2CC3CCC(CC3)C2)n1` [3-[4,6-bis(1,1,3,3-tetramethylbutylamino)-s-triazin-2-yl]-3-azabicyclo[3.2.2]nonane], the inhibition in vivo at 50 mg/kg under setting [6] is 59% and the inhibition in vivo at 50 mg/kg under setting [7] was determined as 23%. The “Mean Weight Gain (grams) Day 14” value under setting [3] was found to be 76 grams. Besides, the “Mean Weight Gain (grams) Day 21” value under setting [4] was found to be 67 grams. In addition, the “Dead/Treated at 21 Days” value under setting [5] is listed as 2/18.

As for `CC(C)(C)Nc1nc(NC(C)(C)C)nc(N2CC3CCC(CC3)C2)n1` [3-[4,6-bis(tert-butylamino)-s-triazin-2-yl]-3-azabicyclo[3.2.2]nonane], the inhibition in vivo at 50 mg/kg was found to be 61% under setting [6] and 22% under setting [7]. The “Mean Weight Gain (grams) Day 14” value under setting [3] was 87 grams. Further, the “Mean Weight Gain (grams) Day 21” value under setting [4] amounted to 69 grams. Besides, the “Dead/Treated at 21 Days” value under setting [5] is 1/9.

Take `CC(C)(C)CC(C)(C)Nc1nc(NC(C)(C)C(C)(C)C)nc(N2CC3CCC(CC3)C2)n1` [3-[4-(1,1,3,3-tetramethylbutylamino)-6-[(1,1,2,2-tetramethylpropyl)amino]-s-triazin-2-yl]-3-azabicyclo[3.2.2]nonane]: the inhibition in vivo at 50 mg/kg reads like this: under setting [6], 74%; under setting [7], 42%. Further, the “Mean Weight Gain (grams) Day 14” value under setting [3] is 66 grams. Also, under setting [4], the “Mean Weight Gain (grams) Day 21” value worked out at 91 grams. In addition, the “Dead/Treated at 21 Days” value under setting [5] is listed as 0/12.

Turning to `CC(C)(C)CC(C)(C)Nc1nc(Nc2ccc(F)cc2)nc(N2CC3CCC(CC3)C2)n1` [3-[4-p-fluoroanilino-6-(1,1,3,3-tetramethylbutylamino)-s-triazin-2-yl]-3-azabicyclo[3.2.2]nonane], the inhibition in vivo at 50 mg/kg under setting [6] was 32% and the inhibition in vivo at 50 mg/kg under setting [7] was 18%. In addition, the “Mean Weight Gain (grams) Day 14” value under setting [3] is 68 grams. Under setting [4], the “Mean Weight Gain (grams) Day 21” value turned out to be 50 grams. Under setting [5], the “Dead/Treated at 21 Days” value is reported as 1/18.

As for `CC(C)(C)C(C)(C)Nc1nc(NC(C)(C)C(C)(C)C)nc(N2CC3CCC(CC3)C2)n1` [3-{4,6-bis[(1,1,2,2-tetramethylpropyl)amino]-s-triazin-2-yl}-3-azabicyclo[3.2.2]nonane], the inhibition in vivo at 25 mg/kg is, setting by setting: under setting [6], 42%; under setting [7], 24%. For the same compound, the inhibition in vivo at 50 mg/kg by setting is: under setting [6], 58%; under setting [7], 34%. Also, the inhibition in vivo at 100 mg/kg amounted to 74% under setting [6] and 41% under setting [7]. The “% Inhibition of Control Grade (secondary lesion) Day 14” value stood at 44% under setting [8], 48% under setting [3] and 69% under setting [10]. Moreover, the “Mean Weight Gain (grams) Day 14” value is 74 grams under setting [8], 56 grams under setting [3] and 73 grams under setting [10]. The “% Inhibition of Control Grade (secondary lesion) Day 21” value by setting is: under setting [9], 12%; under setting [4], 20%; under setting [11], 45%. For the same compound, the “Mean Weight Gain (grams) Day 21” value came to 70 grams under setting [9], 58 grams under setting [4] and 62 grams under setting [11]. In addition, the “Dead/Treated at 21 Days” value reads like this: (oral 25 mg./kg. once daily days 0-13) 1/18; under setting [5], 0/36; under setting [12], 1/18.

Regarding `CC(=O)Oc1ccccc1C(=O)O` [Aspirin], the inhibition in vivo at 50 mg/kg is, setting by setting: under setting [1], 23%; under setting [2], 3%. The inhibition in vivo at 100 mg/kg (336 h, oral 100 mg./kg. once daily days 0-13, Day 14, read-out: % Inhibition of Swelling (primary lesion) Day 14) came out at 36% and the inhibition in vivo at 100 mg/kg (504 h, oral 100 mg./kg. once daily days 0-13, Day 21, read-out: % Inhibition of Swelling (primary lesion) Day 21) is 13%. In addition, the inhibition in vivo at 200 mg/kg (336 h, oral 200 mg./kg. once daily days 0-13, Day 14, read-out: % Inhibition of Swelling (primary lesion) Day 14) was 48% and the inhibition in vivo at 200 mg/kg (504 h, oral 200 mg./kg. once daily days 0-13, Day 21, read-out: % Inhibition of Swelling (primary lesion) Day 21) stood at 27%. For the same compound, the inhibition in vivo at 400 mg/kg (336 h, oral 400 mg./kg. once daily days 0-13, Day 14, read-out: % Inhibition of Swelling (primary lesion) Day 14) was found to be 73% and the inhibition in vivo at 400 mg/kg (504 h, oral 400 mg./kg. once daily days 0-13, Day 21, read-out: % Inhibition of Swelling (primary lesion) Day 21) came out at 48%. The “% Inhibition of Control Grade (secondary lesion) Day 14” value reads like this: under setting [3], 12%; under setting [10], 19%; under setting [13], 26%; under setting [15], 58%. For the same compound, the “Mean Weight Gain (grams) Day 14” value under setting [3] is reported as 56 grams, the “Mean Weight Gain (grams) Day 14” value under setting [10] was 48 grams, the “Mean Weight Gain (grams) Day 14” value under setting [13] was 40 grams and the “Mean Weight Gain (grams) Day 14” value under setting [15] amounted to 41 grams. Besides, the “% Inhibition of Control Grade (secondary lesion) Day 21” value by setting is: under setting [4], 9%; under setting [11], 8%; under setting [14], 17%; under setting [16], 45%. For the same compound, the “Mean Weight Gain (grams) Day 21” value is recorded as 44 grams under setting [4], 53 grams under setting [11], 44 grams under setting [14] and 55 grams under setting [16]. Also, the “Dead/Treated at 21 Days” value is on record as 2/21 under setting [5], 18/63 under setting [12], 10/66 (oral 200 mg./kg. once daily days 0-13) and 18/57 (oral 400 mg./kg. once daily days 0-13).

Turning to `CC(C)(C)C(C)(C)Nc1nc(NC23CC4CC(CC(C4)C2)C3)nc(NC(C)(C)C(C)(C)C)n1` [N^2-1-adamantyl-N^4,N^6-bis(1,1,2,2-tetramethylpropyl)melamine], the inhibition in vivo at 50 mg/kg under setting [1] was 47% and the inhibition in vivo at 50 mg/kg under setting [2] was determined as 17%. The “Mean Weight Gain (grams) Day 14” value under setting [3] is listed as 94 grams. Moreover, the “Mean Weight Gain (grams) Day 21” value under setting [4] was determined as 89 grams. Under setting [5], the “Dead/Treated at 21 Days” value is given as 1/12.

With `CC(C)(C)C(C)(C)Nc1nc(NC2C3CC4CC(C3)CC2C4)nc(NC(C)(C)C(C)(C)C)n1` (stereo not shown) [N^2-2-adamantyl-N^4,N^6-bis(1,1,2,2-tetramethylpropyl)melamine], the inhibition in vivo at 50 mg/kg under setting [1] came out at 79% and the inhibition in vivo at 50 mg/kg under setting [2] was found to be 83%. Also, the “Mean Weight Gain (grams) Day 14” value under setting [3] was 148 grams. Moreover, the “Mean Weight Gain (grams) Day 21” value under setting [4] was 181 grams. Under setting [5], the “Dead/Treated at 21 Days” value is 1/3.
